Assay results published in patent US7910755B2, “Stem cell expansion and uses” (priority 2004, dated 2011).

Assays:
[1] = tested on: lethally-irradiated female B6D2F1 mice; assay: Survival of lethally-irradiated mice (10 Gy total body irradiation, 137Cs); format: in vivo; details: groups of 12
Procedure: Exposure of rodents to ionizing radiation exposure. The effect of selected F1Cs on survival of lethally-irradiated female B6D2F1 mice were compared to control animals treated with vehicle alone. The animals were exposed to 10 Gy of total body irradiation at 2.5 Gy/min using a ^137Cs source. […] For Group 4, test article was administered as a 50 μL volume, by intramuscular injection for three consecutive days. The formulation was a suspension containing 0.1% w/v carboxymethyl-cellulose, 0.9% w/v sodium chloride and 0.05% v/v phenol. The formulations were agitated to uniformly resuspend the F1C before syringing, and injected into animals within a few minutes of drawing into the syringe to prevent settling in the syringe.
The groups of animals were treated as follows.

[2] = tested on: Macaca mulatta (Rhesus monkey) exposed to 6 Gy γ-radiation
Text: Treatment of whole body lethal radiation and characterization of mortality surrogate markers. Two groups of 10 Macaca mulatta (Rhesus monkey) were exposed to a 6 Gy dose of γ-radiation from a ^60Co source. This dose is an LD50/30 dose for this species. […] The age range was 1.75-5.0 years at the onset of treatment.
Test article was an aqueous suspension in vehicle. The vehicle article consists of a solution of sodium chloride (0.9% w/v), carboxymethylcellulose (0.5% w/v), polysorbate 80 (2% v/v), benzalkonium chloride (0.02% v/v) and sodium phosphate (10 mM, pH 6.5). Immediately prior to drawing into a syringe, the test article formulation was briefly vortexed to uniformly distribute sedimented test article. Once drawn into a syringe, the test article was administered within 10 minutes. Just prior to injection, the syringe containing the test article was rotated end-over-end to uniformly disperse the compound.
Whole body radiation. The animals were exposed to ionizing as follows. Dosimetry measurements using phantoms, the dose rate and duration of irradiation and the actual time of irradiation for each individual animal was recorded. Animals were fasted overnight prior to whole-body irradiation and fed upon return to the housing facility. Animals were transferred to the treatment facility in a transport vehicle with controlled environment. During transportation, each animal was individually housed in a stainless steel squeeze back cage. Temperature in the transport vehicle was automatically recorded every 5 minutes during transportation. Clinical signs were monitored immediately before and after transportation.
The animals received a midline treatment dose of 600 cGy. The dose rate of the ^60Co gamma source was about 60 cGy per minute and the actual rate was recorded for each animal. To obtain a homogenous dose distribution, the radiation treatment was divided in two parts. First, the animal received half of the dose by anteroposterior irradiation. The second half of the dose was delivered by posteroanterior irradiation. Once the treatment was completed, animals were returned to the transport vehicle and transported to the housing facility. The radiation dose was calibrated using an acrylic phantom placed in the same experimental set up that was used for animal irradiation.
The animals received the vehicle control once daily for five consecutive days by intramuscular injections. The first injection on day 1 was administered at 2-3 hours after irradiation. The dose volume was 0.15 mL/kg for all animals. The dose volume was evenly divided between two distinct sites (approximately 0.075 mL/kg per site). The actual volume delivered was calculated and adjusted based on each animal's body weight.
During the pre-treatment period cage side observations of clinical signs were performed once daily. A detailed clinical examination was performed on all animals once prior to irradiation on day 1, day 9, weekly thereafter and at day 40 and 41. After radiation, the animals and clinical signs were observed twice a day during the protocol or as often as deemed necessary. Moribund animals were euthanized for humane reasons.

[3] = tested on: female BALB/cByJ mice, DTH response to topical oxazolone challenge; assay: Modulation of delayed type hypersensitivity (oxazolone ear challenge); format: in vivo; details: difference right minus left ear, 24 hours following oxazolone challenge; vehicle alone 0.225 mm
Procedure: Modulation of delayed type hypersensitivity. The capacity of F1Cs to modulate delayed type hypersensitivity (DTH) is determined in mice. Groups of five female BALB/cByJ mice (20-25 grams) are anesthetized and 100 μL of a 3% solution of oxazolone is applied on day 0 to the shaved abdomen and dried. Seven days later, on day 7, the mice are challenged by applying 5 μL of oxazolone topically to each side of the right ear. The F1C (at about 20-100 mg/mL) in vehicle is administered by subcutaneous injection (2 mg/day) one time on day 6, 24 hours before the oxazolone challenge. The vehicle as a non-aqueous suspension of the F1C in, e.g., 2% benzyl alcohol w/v, 0.1% Brij 96 w/v and equal volumes of PEG 300 and propylene glycol.
Dexamethasone in saline (0.2 mg/mL) is administered daily for 9 days (day −1 to 7), first dose 24 hours before sensitization, last dose at challenge by subcutaneous injection (0.01 mg/dose, 50 μl/injection). On Day 8, 24 hours following the oxazolone challenge, both the right and left ear thicknesses are measured using a micrometer caliper and the differences are determined. The differential ear thickness is measured as an indicator of the DTH response to topical oxazolone challenge. The DTH response is expressed as the difference in the thickness (mm) between the right and the left ears for each animal.

[4] = day 6, 0.6 mg s.c. daily for 3 days
[5] = day 7, 0.6 mg s.c. daily for 3 days
[6] = day 12, 0.6 mg s.c. daily for 3 days
[7] = day 21, 0.6 mg s.c. daily for 3 days

SMILES: C[C@]12CC[C@H]3[C@@H](CC=C4C[C@@H](O)CC[C@@]43C)[C@@H]1CC[C@@H]2O [3β,17β-dihydroxyandrost-5-ene]
- number of surviving animals ([1]; day 6, 0.6 mg i.m. daily for 3 days): 12
- number of surviving animals [1, 4]: 12
- number of surviving animals ([1]; day 6, 3.0 mg s.c. daily for 3 days): 12
- number of surviving animals ([1]; day 7, 0.6 mg i.m. daily for 3 days): 12
- number of surviving animals [1, 5]: 11
- number of surviving animals ([1]; day 7, 3.0 mg s.c. daily for 3 days): 12
- number of surviving animals ([1]; day 12, 0.6 mg i.m. daily for 3 days): 11
- number of surviving animals [1, 6]: 10
- number of surviving animals ([1]; day 12, 3.0 mg s.c. daily for 3 days): 9
- number of surviving animals ([1]; day 21, 0.6 mg i.m. daily for 3 days): 9
- number of surviving animals [1, 7]: 7
- number of surviving animals ([1]; day 21, 3.0 mg s.c. daily for 3 days): 7
- number of animals having febrile severe neutropenia (>40.4° C. and absolute neutrophil count less than 500 cells/μL) ([2]; 15 mg/kg i.m. for 5 days, group of 10, at some time during the protocol): 2
- days of severe thrombocytopenia (less than 20,000 platelets/μL) experienced collectively ([2]; 15 mg/kg i.m. for 5 days, group of 10, vehicle 51 days, p=0.009): 32 days
- median days of febrile severe neutropenia ([2]; 15 mg/kg i.m. for 5 days, vehicle median 5 days, p=0.037): 0 days
- animals survived ([2]; 15 mg/kg i.m. once per day for 5 days, 40 days): 9 of 10
- Mortality ([2]; 15 mg/kg i.m. once per day for 5 days, control group 40%): 10%

SMILES: O=P1(N(CCCl)CCCl)NCCCO1 (centres unmarked) [cyclophosphamide]
- differential ear thickness (DTH response) [3]: 0.092 mm

SMILES: C[C@@H]1C[C@H]2[C@@H]3CCC4=CC(=O)C=C[C@]4(C)[C@@]3(F)[C@@H](O)C[C@]2(C)[C@@]1(O)C(=O)CO [dexamethasone]
- differential ear thickness (DTH response) [3]: 0.144 mm

SMILES: C[C@]12CC[C@H]3[C@@H](CC=C4C[C@@H](O)CC[C@@]43C)[C@@H]1CC[C@@H]2N [3β-hydroxy-17,7-aminoandrost-5-ene]
- number of surviving animals [1, 4]: 12
- number of surviving animals [1, 5]: 12
- number of surviving animals [1, 6]: 12
- number of surviving animals [1, 7]: 11
